Here are results for eleven compounds from patent US12606561B2, “Substituted pyrazolo[1,5-a][1,3,5]triazines as CDK inhibitors” (QURIENT CO., LTD., priority 2018, dated 2026).

In test [1] the test system is OVCAR-3. In words: OVCAR-3 viability assay (CellTiter-Glo, 72 hours). Type of test: cell-based. As to conditions: Homo sapiens; OVCAR-3 cells. An outline of the steps:
(§1)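 RPMI-1640/10% FBS; plate cells (MV4-11 1×10^4, OVCAR-3 5×10^3, A2780 1×10^3 per well); 24 h later add compound 0.0015–10 uM; 72 h, 37° C; CellTiter-Glo luminescence, duplicate wells.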
On the technique in general: Cellular ATP, detected with luciferase, serves as a proxy for viable cell number.

Test [2] deals with T1, CDK5/p25 (Homo sapiens, UniProt Q00535).
T1 construct: purchased Invitrogen PR8543B
In words: Enzymatic assay for CDK5 (LANCE Ultra kinase assay, FRET based). It is filed as biochemical. The following applies: ATP at Km. The gist of the method:
(§2)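 TR-FRET kinase assay at ATP Km with ULight-MBP peptide (68 nM) and Eu-anti-phospho-MBP antibody; CDK2/Cyclin A at […], CDK5/p25 at […]. 8-dose 4-fold compound dilutions; 60 min kinase reaction at 23° C., EDTA stop, 60 min detection, read at 615/665 nm.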
(In general: TR-FRET usually uses a lanthanide donor and a delayed reading to cut background.)

In test [3] the target is T2, CDK1/Cyclin B (Homo sapiens, UniProt P06493).
T2 construct: purchased Invitrogen PR4768C
The experiment in a line: Enzymatic assay for CDK1 (LANCE Ultra kinase assay, FRET based). The following applies: ATP at Km; read-out: CDK1 enzymatic activity IC50. It is filed as biochemical. An outline of the steps: (§3)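 Purified CDK–cyclin enzyme, ATP at Km; ULight peptide substrate; TR-FRET via Eu anti-phospho-Ab; inhibition scored.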

The target in test [4] is T3, CDK7/Cyclin H/MNAT1 (Homo sapiens, UniProt P50613).
T3 construct: purchased Invitrogen PR6749B
In words: Enzymatic assay for CDK7 (LANCE Ultra kinase assay, FRET based). Type of test: biochemical. The following applies: for IC50: ATP at Km. The gist of the method:
as §3

Test [5] relates to A2780. The experiment in a line: A2780 viability assay (CellTiter-Glo, 72 hours). It is filed as cell-based. As to conditions: Homo sapiens; A2780 cells. An outline of the steps:
as §1

The target in test [6] is T4, CDK2/Cyclin A (Homo sapiens, UniProt P24941).
T4 construct: purchased Invitrogen PV6290
The experiment in a line: Enzymatic assay for CDK2 (LANCE Ultra kinase assay, FRET based). As to conditions: ATP at Km. Type of test: biochemical. An outline of the steps:
as §2

T1 sequence (Q00535 whole entry): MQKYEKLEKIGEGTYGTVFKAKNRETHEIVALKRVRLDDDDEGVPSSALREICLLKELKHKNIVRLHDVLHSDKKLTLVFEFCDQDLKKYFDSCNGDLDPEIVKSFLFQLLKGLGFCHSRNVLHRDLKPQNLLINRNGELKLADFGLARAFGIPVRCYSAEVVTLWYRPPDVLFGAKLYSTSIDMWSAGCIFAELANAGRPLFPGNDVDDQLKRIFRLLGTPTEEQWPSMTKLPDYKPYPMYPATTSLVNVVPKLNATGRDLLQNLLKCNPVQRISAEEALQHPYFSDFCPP
T1 sequence (Q15078 99-307 partner limits assumed): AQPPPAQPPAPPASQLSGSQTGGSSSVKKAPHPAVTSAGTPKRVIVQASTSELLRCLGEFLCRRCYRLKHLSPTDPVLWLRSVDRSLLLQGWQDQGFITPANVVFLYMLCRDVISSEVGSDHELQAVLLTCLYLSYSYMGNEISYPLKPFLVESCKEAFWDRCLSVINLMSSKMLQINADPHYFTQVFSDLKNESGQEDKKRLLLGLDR
T3 sequence (P50613 whole entry): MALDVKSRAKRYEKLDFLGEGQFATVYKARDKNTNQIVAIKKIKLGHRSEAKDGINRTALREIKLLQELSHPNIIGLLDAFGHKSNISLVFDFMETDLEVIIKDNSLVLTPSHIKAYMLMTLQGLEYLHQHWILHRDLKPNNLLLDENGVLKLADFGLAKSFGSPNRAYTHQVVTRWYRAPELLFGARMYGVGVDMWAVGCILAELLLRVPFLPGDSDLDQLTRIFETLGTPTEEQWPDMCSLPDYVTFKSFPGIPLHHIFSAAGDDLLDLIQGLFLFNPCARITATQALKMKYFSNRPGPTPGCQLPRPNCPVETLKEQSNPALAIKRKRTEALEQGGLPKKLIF
T3 sequence (P51946 whole entry partner): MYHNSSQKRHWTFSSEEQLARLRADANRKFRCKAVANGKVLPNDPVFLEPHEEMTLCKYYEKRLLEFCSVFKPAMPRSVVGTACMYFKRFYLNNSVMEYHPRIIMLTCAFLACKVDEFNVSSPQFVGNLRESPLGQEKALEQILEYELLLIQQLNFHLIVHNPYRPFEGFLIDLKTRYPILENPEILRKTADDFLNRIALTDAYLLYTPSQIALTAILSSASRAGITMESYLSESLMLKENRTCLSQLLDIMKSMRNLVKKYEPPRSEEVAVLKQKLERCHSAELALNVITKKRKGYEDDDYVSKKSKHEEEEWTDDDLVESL
T3 sequence (P51948 whole entry partner): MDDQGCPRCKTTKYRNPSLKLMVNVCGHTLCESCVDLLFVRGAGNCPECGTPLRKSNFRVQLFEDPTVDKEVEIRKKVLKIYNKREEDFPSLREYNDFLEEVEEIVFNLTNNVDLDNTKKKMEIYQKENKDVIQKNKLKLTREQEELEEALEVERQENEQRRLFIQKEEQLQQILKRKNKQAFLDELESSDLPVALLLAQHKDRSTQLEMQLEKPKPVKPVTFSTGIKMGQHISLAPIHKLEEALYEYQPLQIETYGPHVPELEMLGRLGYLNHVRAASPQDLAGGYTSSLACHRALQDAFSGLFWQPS
T2 sequence (P06493 whole entry): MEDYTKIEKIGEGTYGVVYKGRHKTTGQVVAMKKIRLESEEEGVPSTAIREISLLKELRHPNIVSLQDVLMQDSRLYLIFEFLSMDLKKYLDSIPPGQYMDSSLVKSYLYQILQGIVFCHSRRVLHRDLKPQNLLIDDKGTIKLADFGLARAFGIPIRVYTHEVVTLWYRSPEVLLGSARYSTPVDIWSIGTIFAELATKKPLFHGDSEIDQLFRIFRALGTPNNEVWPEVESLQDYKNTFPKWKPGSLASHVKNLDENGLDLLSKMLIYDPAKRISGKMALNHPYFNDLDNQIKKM
T2 sequence (P14635 whole entry partner): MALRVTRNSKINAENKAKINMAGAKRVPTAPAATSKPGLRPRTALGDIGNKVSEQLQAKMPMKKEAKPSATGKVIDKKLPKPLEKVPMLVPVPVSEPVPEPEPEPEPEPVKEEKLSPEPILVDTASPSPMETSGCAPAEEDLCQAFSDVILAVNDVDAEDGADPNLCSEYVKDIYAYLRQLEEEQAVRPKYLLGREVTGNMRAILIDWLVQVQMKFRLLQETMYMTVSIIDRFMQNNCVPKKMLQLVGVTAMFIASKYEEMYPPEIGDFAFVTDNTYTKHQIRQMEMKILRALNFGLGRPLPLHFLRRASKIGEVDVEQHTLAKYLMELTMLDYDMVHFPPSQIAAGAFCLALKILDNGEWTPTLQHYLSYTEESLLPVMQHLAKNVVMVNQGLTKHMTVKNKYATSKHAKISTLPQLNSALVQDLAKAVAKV

By IC50 is commonly meant the midpoint of a concentration-inhibition curve. Take `CC(C)c1cnn2c(NCc3ccccc3-c3nccc4cc(NC(=O)/C=C/CN(C)C)ccc34)nc(NC3CCS(=O)(=O)CC3)nc12` [Compound 107]: the IC50 was below 1000 nM in test [1]; above 1000 nM in test [2]; above 1000 nM in test [3]; 100 to 1000 nM in test [4]; below 1000 nM in test [5]; above 1000 nM in test [6]. Moreover, the “CDK1/CDK7: Selectivity of CDK7 inhibition over CDK1 inhibition” value in test [4] is “B (B indicates 50 < [fold] ≤ 500)”. Moreover, the “CDK2/CDK7: Selectivity of CDK7 inhibition over CDK2 inhibition” value in test [4] is “B (B indicates 50 < [fold] ≤ 500)”. The “CDK5/CDK7: Selectivity of CDK7 inhibition over CDK5 inhibition” value in test [4] is “B (B indicates 50 < [fold] ≤ 500)”.
`C=C(F)C(=O)Nc1ccc2c(-c3ccccc3CNc3nc(NC[C@H]4CCN(C)C[C@@H]4O)nc4c(C(C)C)cnn34)nccc2c1` [Compound 164]: the IC50 in test [1] is below 1000 nM; in test [2] it was above 1000 nM; in test [3], above 1000 nM; in test [4] it was below 100 nM; in test [5], below 1000 nM; in test [6], above 1000 nM. For the same compound, the “CDK1/CDK7: Selectivity of CDK7 inhibition over CDK1 inhibition” value in test [4] was “A (A indicates [fold] > 500)”. Moreover, the “CDK2/CDK7: Selectivity of CDK7 inhibition over CDK2 inhibition” value in test [4] was “A (A indicates [fold] > 500)”. For the same compound, the “CDK5/CDK7: Selectivity of CDK7 inhibition over CDK5 inhibition” value in test [4] is “A (A indicates [fold] > 500)”.
`Cc1cc(NCc2ccccc2-c2nccc3cc(NC(=O)/C=C/CN(C)C)ccc23)n2ncc(C(C)C)c2n1` [Compound 153]: the IC50 was below 1000 nM in test [1]; above 1000 nM in test [2]; above 1000 nM in test [3]; below 100 nM in test [4]; below 1000 nM in test [5]; above 1000 nM in test [6]. Besides, the “CDK1/CDK7: Selectivity of CDK7 inhibition over CDK1 inhibition” value in test [4] was “A (A indicates [fold] > 500)”. In test [4], the “CDK2/CDK7: Selectivity of CDK7 inhibition over CDK2 inhibition” value was “A (A indicates [fold] > 500)”. Further, the “CDK5/CDK7: Selectivity of CDK7 inhibition over CDK5 inhibition” value in test [4] was “A (A indicates [fold] > 500)”.
For `C=C(F)C(=O)Nc1ccc2c(-c3ccccc3CNc3nc(O[C@@H]4CCCNC4)nc4c(C(C)C)cnn34)nccc2c1` [Compound 137], the IC50 in test [1] was below 1000 nM; in test [2], above 1000 nM; in test [3], above 1000 nM; in test [4], below 100 nM; in test [5], below 1000 nM; in test [6], above 1000 nM. Also, the “CDK1/CDK7: Selectivity of CDK7 inhibition over CDK1 inhibition” value in test [4] is “A (A indicates [fold] > 500)”. The “CDK2/CDK7: Selectivity of CDK7 inhibition over CDK2 inhibition” value in test [4] was “A (A indicates [fold] > 500)”. Further, in test [4], the “CDK5/CDK7: Selectivity of CDK7 inhibition over CDK5 inhibition” value was “A (A indicates [fold] > 500)”.
Take `C=C(C)C(=O)Nc1ccc2c(-c3ccccc3CNc3nc(NC4CCC(C)(C)NC4)nc4c(C(C)C)cnn34)nccc2c1` (stereo not drawn) [Compound 181]: the IC50 is below 1000 nM in test [1]; above 1000 nM in test [2]; above 1000 nM in test [3]; below 100 nM in test [4]; below 1000 nM in test [5]; above 1000 nM in test [6]. Besides, the “CDK1/CDK7: Selectivity of CDK7 inhibition over CDK1 inhibition” value in test [4] is “A (A indicates [fold] > 500)”. In test [4], the “CDK2/CDK7: Selectivity of CDK7 inhibition over CDK2 inhibition” value was “A (A indicates [fold] > 500)”. Besides, the “CDK5/CDK7: Selectivity of CDK7 inhibition over CDK5 inhibition” value in test [4] was “A (A indicates [fold] > 500)”.
Regarding `C=C(F)C(=O)Nc1ccc2c(-c3ccccc3CNc3nc(N[C@@H]4CCCN(C)C4)nc4c(C(C)C)cnn34)nccc2c1` [Compound 173], the IC50 in test [1] was below 1000 nM; in test [2], above 1000 nM; in test [3] it was above 1000 nM; in test [4] it was below 100 nM; in test [5] it was below 1000 nM; in test [6], above 1000 nM. Also, the “CDK1/CDK7: Selectivity of CDK7 inhibition over CDK1 inhibition” value in test [4] is “A (A indicates [fold] > 500)”. Further, the “CDK2/CDK7: Selectivity of CDK7 inhibition over CDK2 inhibition” value in test [4] is “A (A indicates [fold] > 500)”. The “CDK5/CDK7: Selectivity of CDK7 inhibition over CDK5 inhibition” value in test [4] is “A (A indicates [fold] > 500)”.
As to `C=C(F)C(=O)Nc1ccc2c(-c3ccccc3CNc3nc(NC4CCC(C)(C)NC4)nc4c(C(C)C)cnn34)nccc2c1` (stereo not drawn) [Compound 175], the IC50 in test [1] was below 1000 nM; in test [2], above 1000 nM; in test [3] it was above 1000 nM; in test [4], below 100 nM; in test [5], below 1000 nM; in test [6], above 1000 nM. The “CDK1/CDK7: Selectivity of CDK7 inhibition over CDK1 inhibition” value in test [4] was “A (A indicates [fold] > 500)”. Besides, the “CDK2/CDK7: Selectivity of CDK7 inhibition over CDK2 inhibition” value in test [4] is “A (A indicates [fold] > 500)”. Further, the “CDK5/CDK7: Selectivity of CDK7 inhibition over CDK5 inhibition” value in test [4] was “A (A indicates [fold] > 500)”.
With `CC(C)c1cnn2c(NCc3ccccc3-c3nccc4cc(NC(=O)/C=C/CN(C)C)ccc34)cc(N3CCC4(CC3)OCCO4)nc12` [Compound 124], the IC50 in test [1] is below 1000 nM; in test [2] it was above 1000 nM; in test [3], above 1000 nM; in test [4], below 100 nM; in test [5] it was below 1000 nM; in test [6] it was above 1000 nM. Moreover, the “CDK1/CDK7: Selectivity of CDK7 inhibition over CDK1 inhibition” value in test [4] is “B (B indicates 50 < [fold] ≤ 500)”. The “CDK2/CDK7: Selectivity of CDK7 inhibition over CDK2 inhibition” value in test [4] is “B (B indicates 50 < [fold] ≤ 500)”. The “CDK5/CDK7: Selectivity of CDK7 inhibition over CDK5 inhibition” value in test [4] was “B (B indicates 50 < [fold] ≤ 500)”.
Take `C=C(F)C(=O)Nc1ccc2c(-c3ccccc3CNc3nc(NC[C@@H]4CCNC[C@@H]4O)nc4c(C(C)C)cnn34)nccc2c1` [Compound 162]: the IC50 was 1000 to 10000 nM in test [1]; above 1000 nM in test [2]; above 1000 nM in test [3]; below 100 nM in test [4]; below 1000 nM in test [5]; above 1000 nM in test [6]. In addition, in test [4], the “CDK1/CDK7: Selectivity of CDK7 inhibition over CDK1 inhibition” value is “A (A indicates [fold] > 500)”. For the same compound, the “CDK2/CDK7: Selectivity of CDK7 inhibition over CDK2 inhibition” value in test [4] is “A (A indicates [fold] > 500)”. Besides, in test [4], the “CDK5/CDK7: Selectivity of CDK7 inhibition over CDK5 inhibition” value is “A (A indicates [fold] > 500)”.
As to `CC(C)c1cnn2c(NCc3ccccc3-c3nccc4cc(NC(=O)/C=C/CN(C)C)ccc34)nc(OC3CC4CCC(C3)N4C)nc12` (stereo not drawn) [Compound 122], the IC50 is below 1000 nM in test [1]; above 1000 nM in test [2]; above 1000 nM in test [3]; below 100 nM in test [4]; below 1000 nM in test [5]; above 1000 nM in test [6]. For the same compound, in test [4], the “CDK1/CDK7: Selectivity of CDK7 inhibition over CDK1 inhibition” value is “A (A indicates [fold] > 500)”. Further, in test [4], the “CDK2/CDK7: Selectivity of CDK7 inhibition over CDK2 inhibition” value is “A (A indicates [fold] > 500)”. Besides, the “CDK5/CDK7: Selectivity of CDK7 inhibition over CDK5 inhibition” value in test [4] was “A (A indicates [fold] > 500)”.
As for `CC(C)c1cnn2c(NCc3ccccc3-c3nccc4cc(NC(=O)/C=C/CN(C)C)ccc34)nc(N3CCOC4(CCN(C)CC4)C3)nc12` [Compound 120], the IC50 in test [1] is below 1000 nM; in test [2], above 1000 nM; in test [3], above 1000 nM; in test [4] it was below 100 nM; in test [5], below 1000 nM; in test [6], above 1000 nM. For the same compound, the “CDK1/CDK7: Selectivity of CDK7 inhibition over CDK1 inhibition” value in test [4] is “A (A indicates [fold] > 500)”. In addition, the “CDK2/CDK7: Selectivity of CDK7 inhibition over CDK2 inhibition” value in test [4] is “A (A indicates [fold] > 500)”. Further, the “CDK5/CDK7: Selectivity of CDK7 inhibition over CDK5 inhibition” value in test [4] is “A (A indicates [fold] > 500)”.
